Experimental data: paper PMC10303900, “Discovery of a New Chalcone-Trimethoxycinnamide Hybrid with Antimitotic Effect: Design, Synthesis, and Structure—Activity Relationship Studies” (Pharmaceuticals, 2023)

What was measured:
p53–MDM2 interaction = target: T1, p53–MDM2 interaction (Homo sapiens, UniProt Q00987); assay: Yeast targeted screening assay of p53–MDM2 interaction; details: 10 μM, yeast cell-based assay, data not shown
T1 construct: expressed in transfected cells; host or cells: Saccharomyces cerevisiae strain CG379
T1 sequence (Q00987 whole entry): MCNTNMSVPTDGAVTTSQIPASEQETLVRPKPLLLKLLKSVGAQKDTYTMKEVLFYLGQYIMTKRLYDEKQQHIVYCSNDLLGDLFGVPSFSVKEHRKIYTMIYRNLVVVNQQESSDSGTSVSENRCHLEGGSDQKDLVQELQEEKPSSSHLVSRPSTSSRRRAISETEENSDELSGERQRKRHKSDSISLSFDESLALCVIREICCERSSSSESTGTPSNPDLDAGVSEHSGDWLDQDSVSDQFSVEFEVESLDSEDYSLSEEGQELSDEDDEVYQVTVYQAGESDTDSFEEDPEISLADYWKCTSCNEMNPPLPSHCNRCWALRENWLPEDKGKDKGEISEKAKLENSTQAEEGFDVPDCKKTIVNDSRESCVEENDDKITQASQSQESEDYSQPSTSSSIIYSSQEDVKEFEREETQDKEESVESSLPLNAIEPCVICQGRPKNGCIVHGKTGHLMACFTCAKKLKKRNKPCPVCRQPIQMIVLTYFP
Experimental: However, since CM-M345 (1) has been previously reported as a p53-MDM2 inhibitor by our research group, the effect of 10 μM of compounds 6, 7, and 13 on the p53–MDM2 interaction was analyzed using yeast cell-based assays.
Saccharomyces cerevisiae (strain CG379) expressing human wt p53 alone and combined with human MDM2 were obtained in previous works. For the expression of human proteins (routinely grown in minimal selective medium), cells were diluted to 0.05 OD600 in selective induction medium containing 2% (w/w) galactose, 1% (w/w) raffinose, 0.7% (w/w) yeast nitrogen base without amino acids from Difco (Quilaban, Sintra, Portugal), and all the amino acids required for yeast growth ([…]) except leucine and tryptophan. Yeast cells were incubated at 30 °C under continuous orbital shaking (200 rpm) with 10 µM compounds or 0.1% DMSO only, for approximately 42 h (time required by the control yeast, co-transformed with the empty vectors and incubated with DMSO only, to achieve 0.4 OD600). Yeast growth was analyzed by counting the number of colony-forming units (CFU) after 2 days of incubation at 30 °C on Sabouraud Dextrose Agar from Liofilchem (Frilabo, Porto, Portugal).

HCT116 cells = assay: Immunofluorescence of mitotic spindle morphology (anti-α-tubulin); type: cell-based, human; details: HCT116, GI50 of the compound, 24 h
Experimental: To understand the mechanism behind the induction of mitotic arrest after treatment with the compound 7, we treated HCT116 cells with the GI50 of the compound. Twenty-four hours later, we performed an immunofluorescence assay using an anti-α-tubulin antibody to visualize the spindle morphology.
Cells were treated as for DAPI staining. After methanol fixation, cells were blocked with 10% FBS in PBST (0.05% Tween-20 in PBS) for 30 min at room temperature, followed by 1 h incubation with a primary antibody (mouse anti-α-tubulin, 1:2500, Sigma-Aldrich Co., Ltd., Gillingham, UK) diluted in 5% FBS in PBST. Then, cells were washed three times in PBST and incubated with an Alexa Fluor 488 conjugated secondary antibody (1:1500, Molecular Probes, Eugene, OR, USA). DNA was stained with DAPI.

CCCc1c(OCCNC(=O)/C=C/c2cc(OC)c(OC)c(OC)c2)ccc(C(=O)/C=C/c2cc(OC)c(OC)c(OC)c2)c1O [Compound 7, (E)-N-(2-(3-hydroxy-2-propyl-4-((E)-3-(3,4,5-trimethoxyphenyl)acryloyl)phenoxy)ethyl)-3-(3,4,5-trimethoxyphenyl)acrylamide]
Effect on the p53–MDM2 interaction (reversal of the negative growth effect of MDM2 on p53) (p53–MDM2 interaction): none of the tested compounds significantly reversed the negative inhibitory growth effect of MDM2 on p53
Cells with collapsed (monopolar-like) mitotic spindles (HCT116 cells): 91.41 ± 4.87%
Percentage of bipolar spindles (HCT116 cells): 6.57 ± 2.13%
